According to paper PMC6272992, “Synthesis and Cytotoxic Effect of Some Novel 1,2-Dihydropyridin-3-carbonitrile and Nicotinonitrile Derivatives” (Molecules, 2015):
Converted amounts (≈) assume the structure as drawn.

How the values were obtained:
[1] = test system: WI 38 (normal fibroblast cells); assay: SRB cell growth assay, normal cells WI 38; type: cell-based, human; details: 48 h exposure, non-cytotoxic = IC50 > 100 μg/mL
Description: (§1) The in vitro cytotoxic activity the newly synthesized compounds against human breast cell line (MCF7), non-small cell lung cancer NCI-H460, CNS cancer SF-268 and WI 38 (normal fibroblast cells) were evaluated using doxorubicin as the reference drug, according to the method reported by Skehan et al..
(§2) The newly synthesized compounds were evaluated in vitro against three human cancer cell lines; which are MCF-7 (breast adenocarcinoma), NCI-H460 (non-small cell lung cancer) and SF-268 (CNS cancer), and WI 38 (normal fibroblast cells) were used in this study. MCF-7 was obtained from the European Collection of Cell Cultures (ECACC, Salisbury, UK) but NCI-H460, SF-268 and WI 38 were kindly provided by the National Cancer Institute (NCI, Cairo, Egypt). They grow as monolayers routinely maintained in RPMI-1640 medium supplemented with 5% heat inactivated fetal bovine serum (FBS), 2 mM glutamine and antibiotics (penicillin 100 U/mL, streptomycin 100 µg/mL), at 37 °C in a humidified atmosphere containing 5% CO2. Exponentially growing cells were obtained by plating 1.5 × 10^5 cells/mL for MCF-7 and SF-268, and 0.75 × 10^4 cells/mL for NCI-H460 followed by 24 h of incubation. The effect of the vehicle solvent (DMSO) on the growth of these cell lines was evaluated in all experiments by exposing untreated control cells to the maximum concentration (0.5%) of DMSO used in each assay.
(§3) The effect of compounds on the in vitro growth of human tumor cell lines were evaluated according to the procedure adopted by the National Cancer Institute (NCI, […], USA) in the “In vitro Anticancer Drug Discovery Screen” that uses the protein-binding dye sulforhodamine B (SRB) to assess cell growth. In the assay protocol, all cells were incubated at 37 °C under humidified atmosphere containing 5% CO2. Briefly, exponentially cells growing in 96-well plates were then exposed for 48 h to five serial concentrations of each compound, starting from a maximum concentration of 150 μg/mL. Following this exposure period, adherent cells were fixed, washed and stained. The bound stain was solubilized and the absorbance was measured at 492 nm in a Power Wave XS plate reader (Bio-Tek Instruments Inc., Winston, NC, USA). For each test compound and cell line, a dose response curve was obtained and the inhibitory concentration of 50% (IC50), corresponding to the concentration of the compounds that inhibited 50% of the net cell growth was calculated as described elsewhere. Doxorubicin was used as a positive control and tested in the same manner.

[2] = test system: MCF-7 (breast adenocarcinoma); assay: SRB cancer cell growth assay, MCF-7; type: cell-based, human; set-up: key to activity class MCF-7: highly active; b: moderately active; weakly active; details: for IC50: Homo sapiens, MCF7, MCF-7, 48 h exposure, SRB, read-out: IC50 (μg/mL) MCF-7
Description: as §1, §2, §3

[3] = test system: NCI-H460 (non-small cell lung cancer); assay: SRB cancer cell growth assay, NCI-H460; type: cell-based, human; set-up: key to activity class NCI-H460: highly active; b: moderately active; weakly active; details: for IC50: Homo sapiens, NCI-H460, 48 h exposure, SRB, read-out: IC50 (μg/mL) NCI-H460
Description: as §1, §2, §3

SF-268 (CNS cancer) = assay: SRB cancer cell growth assay, SF-268; type: cell-based, human; set-up: key to activity class SF-268: highly active; b: moderately active; weakly active; details: for IC50: Homo sapiens, SF-268, 48 h exposure, SRB, read-out: IC50 (μg/mL) SF-268
Description: as §1, §2, §3

N#Cc1c(-c2ccc(F)cc2)cc(-c2ccc(Cl)cc2Cl)nc1NN=C1C(=O)Nc2ccccc21 [Compound 20, 6-(2,4-Dichlorophenyl)-4-(4-fluorophenyl)-2-[2-(2-oxoindolin-3-ylidene)hydrazinyl]nicotinonitrile]
melting point: 268 to 269 °C | IC50 ([1]; Homo sapiens): 72.5 ± 2.4 µg/mL (≈ 144 µM) | IC50 [2]: 0.66 ± 0.21 µg/mL (≈ 1.31 µM) | activity class MCF-7 [2]: a | IC50 [3]: 0.9 ± 0.12 µg/mL (≈ 1.79 µM) | activity class NCI-H460 [3]: a | IC50 (SF-268 (CNS cancer)): 2.34 ± 0.51 µg/mL (≈ 4.66 µM) | activity class SF-268 (SF-268 (CNS cancer)): a

COc1ccc(C=NNc2nc(-c3ccc(Cl)cc3Cl)cc(-c3ccc(F)cc3)c2C#N)cc1OC [Compound 21d, 6-(2,4-Dichlorophenyl)-2-[2-(3,4-dimethoxybenzylidene)hydrazinyl]-4-(4-fluorophenyl) nicotinonitrile]
melting point: 278 to 280 °C | IC50 (μg/mL) WI 38 [1]: non-cytotoxic | IC50 [2]: 66 ± 8.25 µg/mL (≈ 127 µM) | activity class MCF-7 [2]: c | IC50 [3]: 45 ± 10.5 µg/mL (≈ 86.2 µM) | activity class NCI-H460 [3]: c | IC50 (SF-268 (CNS cancer)): 32.5 ± 6.04 µg/mL (≈ 62.2 µM) | activity class SF-268 (SF-268 (CNS cancer)): b
